Results reported in patent US20230257372A1 (CHONG KUN DANG PHARMACEUTICAL CORP., priority 2020, published 2023).
Like-named read-outs stand apart in the source and are kept apart here.

What was measured:
human recombinant HDAC6 = target: T1, human recombinant HDAC6 (Homo sapiens, UniProt Q9UBN7); assay: HDAC6 enzyme activity inhibition (HDAC Fluorimetric Drug Discovery Kit); assay type: biochemical
T1 construct: purchased Calbiochem Inc. 382180
T1 sequence (Q9UBN7 1-1215): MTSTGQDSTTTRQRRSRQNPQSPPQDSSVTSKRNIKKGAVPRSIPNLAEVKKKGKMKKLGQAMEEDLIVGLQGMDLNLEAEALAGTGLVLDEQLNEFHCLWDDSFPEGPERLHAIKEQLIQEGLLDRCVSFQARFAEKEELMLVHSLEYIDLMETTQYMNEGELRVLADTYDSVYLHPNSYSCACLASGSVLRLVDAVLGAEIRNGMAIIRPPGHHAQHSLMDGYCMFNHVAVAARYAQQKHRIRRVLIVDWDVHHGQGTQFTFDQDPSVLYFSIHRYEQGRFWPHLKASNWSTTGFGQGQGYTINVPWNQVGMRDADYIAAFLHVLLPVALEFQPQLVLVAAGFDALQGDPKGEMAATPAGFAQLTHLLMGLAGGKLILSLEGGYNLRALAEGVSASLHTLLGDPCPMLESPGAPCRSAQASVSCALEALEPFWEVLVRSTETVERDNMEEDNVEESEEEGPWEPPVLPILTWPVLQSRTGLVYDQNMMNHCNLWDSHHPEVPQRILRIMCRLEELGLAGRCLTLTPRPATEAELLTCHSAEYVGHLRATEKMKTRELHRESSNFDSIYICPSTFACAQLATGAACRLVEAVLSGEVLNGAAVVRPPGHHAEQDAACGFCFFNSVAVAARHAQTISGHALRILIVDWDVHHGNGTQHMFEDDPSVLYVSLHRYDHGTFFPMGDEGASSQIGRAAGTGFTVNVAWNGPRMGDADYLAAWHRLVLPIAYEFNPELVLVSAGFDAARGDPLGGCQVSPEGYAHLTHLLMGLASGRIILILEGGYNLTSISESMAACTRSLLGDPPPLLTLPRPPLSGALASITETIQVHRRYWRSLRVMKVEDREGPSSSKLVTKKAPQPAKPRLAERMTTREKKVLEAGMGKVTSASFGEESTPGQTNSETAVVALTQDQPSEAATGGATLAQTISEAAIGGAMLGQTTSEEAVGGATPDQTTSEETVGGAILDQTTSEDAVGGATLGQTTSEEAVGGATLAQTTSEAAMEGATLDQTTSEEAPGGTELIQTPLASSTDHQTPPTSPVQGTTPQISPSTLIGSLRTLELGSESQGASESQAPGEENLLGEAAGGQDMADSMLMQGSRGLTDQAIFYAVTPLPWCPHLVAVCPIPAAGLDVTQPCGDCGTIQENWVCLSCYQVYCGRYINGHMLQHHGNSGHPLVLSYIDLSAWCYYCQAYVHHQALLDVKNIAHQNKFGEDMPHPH
In short: (§1)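 Each isoform is run in the same format: compound dilutions (5-fold steps), 10 μM substrate, […] enzyme, one hour at 30° C, then 30 minutes with developer before fluorescence readout.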

human recombinant HDAC1 = target: T2, human recombinant HDAC1 (Homo sapiens, UniProt Q13547); assay: HDAC1 enzyme activity inhibition (HDAC Fluorimetric Drug Discovery Kit); assay type: biochemical; conditions: read-out: HDAC1
T2 construct: purchased Enzo Life Science, Inc. BML-SE456
In short: as §1

[1] = human recombinant HDAC6, same protocol as HDAC1
[2] = human recombinant HDAC1, Fluor de Lys substrate, 30° C. 60 minutes
[3] = human recombinant HDAC6, IC50 calculated with GraphPad Prism
[4] = human recombinant HDAC1, IC50 calculated with GraphPad Prism

T2 sequence (Q13547 whole entry): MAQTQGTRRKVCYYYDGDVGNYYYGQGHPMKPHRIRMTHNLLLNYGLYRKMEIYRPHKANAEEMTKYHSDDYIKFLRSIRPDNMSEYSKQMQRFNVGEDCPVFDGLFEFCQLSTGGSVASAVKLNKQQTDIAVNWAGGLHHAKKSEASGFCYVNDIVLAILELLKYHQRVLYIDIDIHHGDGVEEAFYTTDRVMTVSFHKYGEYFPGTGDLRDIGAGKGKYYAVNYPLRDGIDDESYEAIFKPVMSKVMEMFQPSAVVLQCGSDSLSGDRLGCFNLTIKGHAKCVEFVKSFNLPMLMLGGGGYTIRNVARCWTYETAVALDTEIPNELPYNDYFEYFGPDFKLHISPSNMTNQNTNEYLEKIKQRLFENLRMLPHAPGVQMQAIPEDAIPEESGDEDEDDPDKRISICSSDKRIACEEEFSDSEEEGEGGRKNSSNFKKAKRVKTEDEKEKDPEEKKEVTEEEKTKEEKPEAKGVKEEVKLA

SMILES	HDAC6 selectivity (fold) (human recombinant HDAC6; HDAC6 over HDAC1)	IC50 (human recombinant HDAC6; [1]) [nM]	IC50 (human recombinant HDAC1; [2]) [µM]	HDAC6 selectivity (fold) (human recombinant HDAC6; HDAC1 IC50 / HDAC6 IC50)	IC50 (human recombinant HDAC6; [3]) [nM]	IC50 (human recombinant HDAC1; [4]) [µM]
CC1CCN(Cc2ccc(-c3cn(Cc4ccc(-c5nnc(C(F)F)o5)cc4F)nn3)s2)CC1 [Compound 17915]	568	87.9	> 50	–	–	–
FC(F)c1nnc(-c2ccc(Cn3cc(-c4cncnc4)nn3)nc2)o1 [Compound 3960, 2-(difluoromethyl)-5-(6-((4-(pyrimidin-5-yl)-1H-1,2,3-triazol-1-yl)methyl)pyridin-3-yl)-1,3,4-oxadiazole]	–	–	–	473	105	> 50
FC1CN(Cc2cccc(-c3cn(Cc4ccc(-c5nnc(C(F)F)o5)cn4)nn3)c2)C1 [Compound 3964, 2-(difluoromethyl)-5-(6-((4-(3-((3-fluoroazetidin-1-yl)methyl)phenyl)-1H-1,2,3-triazol-1-yl)methyl)pyridin-3-yl)-1,3,4-oxadiazole]	–	–	–	1908	26.2	> 50
Fc1cc(-c2nnc(C(F)F)o2)ccc1Cn1cc(-c2cccc(CN3CCC(F)(F)CC3)c2)nn1 [Compound 4405, 2-(difluoromethyl)-5-(4-((4-(3-((4,4-difluoropiperidin-1-yl)methyl)phenyl)-1H-1,2,3-triazol-1-yl)methyl)-3-fluorophenyl)-1,3,4-oxadiazole]	–	–	–	794	62.9	> 50
O=C(Nc1cccc(-c2cn(Cc3ccc(-c4nnc(C(F)F)o4)cn3)nn2)c1)C1CN(C2COC2)C1 [Compound 4465]	–	–	–	2222	22.5	> 50
FC1CN(Cc2ccc(-c3cn(Cc4ccc(-c5nnc(C(F)F)o5)cc4)nn3)cc2)C1 [Compound 4549, 2-(difluoromethyl)-5-(4-((4-(4-((3-fluoroazetidin-1-yl)methyl)phenyl)-1H-1,2,3-triazol-1-yl)methyl)phenyl)-1,3,4-oxadiazole]	1213	41.2	> 50	–	–	–
CCN1Cc2ccc(-c3cn(Cc4ccc(-c5nnc(C(F)F)o5)cc4F)nn3)cc2C1 [Compound 4516, 2-(difluoromethyl)-5-(4-((4-(2-ethylisoindolin-5-yl)-1H-1,2,3-triazol-1-yl)methyl)-3-fluorophenyl)-1,3,4-oxadiazole]	680	73.5	> 50	–	–	–
CC(C)(C)OC(=O)N1CC(c2cn(Cc3ccc(-c4nnc(C(F)F)o4)cn3)nn2)C1 [Compound 3926, Tert-butyl 3-(1-((5-(5-(difluoromethyl)-1,3,4-oxadiazol-2-yl)pyridin-2-yl)methyl)-1H-1,2,3-triazol-4-yl)azetidin-1-carboxylate]	–	–	–	308	162	> 50
CN1C[C@@H]2C[C@H]1CN2c1cc(-c2cn(Cc3ccc(-c4nnc(C(F)F)o4)cc3F)nn2)ccc1F [Compound 4430, 2-(difluoromethyl)-5-(3-fluoro-4-((4-(4-fluoro-3-((1S,4S)-5-methyl-2,5-diazabicyclo[2.2.1]heptan-2-yl)phenyl)-1H-1,2,3-triazol-1-yl)methyl)phenyl)-1,3,4-oxadiazole]	–	–	–	351	142	> 50
Fc1cc(-c2nnc(C(F)F)o2)ccc1Cn1cc(-c2cccc(C3CN(C4CCC4)C3)c2)nn1 [Compound 4507]	1779	28.1	> 50	–	–	–
CCN1CC(N2CCc3cc(-c4cn(Cc5ccc(-c6nnc(C(F)F)o6)cc5F)nn4)ccc3C2)C1 [Compound 4392, 2-(difluoromethyl)-5-(4-((4-(2-(1-ethylazetidin-3-yl)-1,2,3,4-tetrahydroisoquinolin-6-yl)-1H-1,2,3-triazol-1-yl)methyl)-3-fluorophenyl)-1,3,4-oxadiazole]	–	–	–	1262	39.6	> 50
FC(F)c1nnc(-c2ccc(Cn3cc(C4CCCC4)nn3)nc2)o1 [Compound 3846, 2-(6-((4-cyclopentyl-1H-1,2,3-triazol-1-yl)methyl)pyridin-3-yl)-5-(difluoromethyl)-1,3,4-oxadiazole]	–	–	–	630	79.3	> 50
FC(F)c1nnc(-c2ccc(Cn3cc(-c4ccccc4)nn3)cc2)o1 [Compound 3657, 2-(difluoromethyl)-5-(4-((4-phenyl-1H-1,2,3-triazol-1-yl)methyl)phenyl)-1,3,4-oxadiazole]	–	–	–	527	94.8	> 50
CC(C)N1CCC(c2cccc(-c3cn(Cc4ccc(-c5nnc(C(F)F)o5)cc4F)nn3)c2)CC1 [Compound 4292, 2-(difluoromethyl)-5-(3-fluoro-4-((4-(3-(1-isopropylpiperidin-4-yl)phenyl)-1H-1,2,3-triazol-1-yl)methyl)phenyl)-1,3,4-oxadiazole]	–	–	–	967	51.7	> 50
FC(F)c1nnc(-c2ccc(Cn3cc(-c4cccc(CN5CC6(COC6)C5)c4)nn3)nc2)o1 [Compound 3965, 6-(3-(1-((5-(5-(difluoromethyl)-1,3,4-oxadiazol-2-yl)pyridin-2-yl)methyl)-1H-1,2,3-triazol-4-yl)benzyl)-2-oxa-6-azaspiro[3.3]heptane]	–	–	–	1392	35.9	> 50
Fc1cc(-c2nnc(C(F)F)o2)ccc1Cn1cc(-c2cccc(CN3CC(F)(F)C3)c2)nn1 [Compound 4418, 2-(4-((4-(3-((3,3-difluoroazetidin-1-yl)methyl)phenyl)-1H-1,2,3-triazol-1-yl)methyl)-3-fluorophenyl)-5-(difluoromethyl)-1,3,4-oxadiazole]	–	–	–	837	59.7	> 50
C[C@@H]1CN(c2cccc(-c3cn(Cc4ncc(-c5nnc(C(F)F)o5)cc4F)nn3)c2)C[C@H](C)N1C [Compound 18961, 2-(difluoromethyl)-5-(5-fluoro-6-((4-(3-((3R,5S)-3,4,5-trimethylpiperazin-1-yl)phenyl)-1H-1,2,3-triazol-1-yl)methyl)pyridin-3-yl)-1,3,4-oxadiazole]	782	63.9	> 50	–	–	–
Fc1cc(-c2nnc(C(F)F)o2)ccc1Cn1cc(-c2cccc(C3CN(C4COC4)C3)c2)nn1 [Compound 4462, 2-(difluoromethyl)-5-(3-fluoro-4-((4-(3-(1-(oxetan-3-yl)azetidin-3-yl)phenyl)-1H-1,2,3-triazol-1-yl)methyl)phenyl)-1,3,4-oxadiazole]	–	–	–	540	92.5	> 50
CC(=O)N1CCC(Nc2cccc(-c3cn(Cc4ccc(-c5nnc(C(F)F)o5)cc4F)nn3)c2F)CC1 [Compound 4433, 1-(4-((3-(1-(4-(5-(difluoromethyl)-1,3,4-oxadiazol-2-yl)-2-fluorobenzyl)-1H-1,2,3-triazol-4-yl)-2-fluorophenyl)amino)piperidin-1-yl)ethan-1-one]	–	–	–	1510	33.1	> 50
FC(F)c1nnc(-c2ccc(Cn3cc(-c4cccc(CN5CCCC5)c4)nn3)nc2)o1 [Compound 3966, 2-(difluoromethyl)-5-(6-((4-(3-(pyrrolidin-1-ylmethyl)phenyl)-1H-1,2,3-triazol-1-yl)methyl)pyridin-3-yl)-1,3,4-oxadiazole]	–	–	–	1694	29.5	> 50
OCc1ccc(-c2cn(Cc3ccc(-c4nnc(C(F)F)o4)cc3F)nn2)cc1 [Compound 4476, (4-(1-(4-(5-(difluoromethyl)-1,3,4-oxadiazol-2-yl)-2-fluorobenzyl)-1H-1,2,3-triazol-4-yl)phenyl)methanol]	–	–	–	1022	48.9	> 50
